In patent US8067454B2, “Thio-substituted Anthra [1, 2-d] imidazole- 6, 11-dione derivatives, preparation method and application thereof” (National Defense Medical Center, priority 2010, dated 2011):

How the values were obtained:
CCRF-CEM = test: NCI 60-cell drug screen, Leukemia CCRF-CEM; assay type: cell-based, human; conditions: 1.00E−5 Molar
HL-60(TB) = test: NCI 60-cell drug screen, Leukemia HL-60(TB); assay type: cell-based, human; conditions: 1.00E−5 Molar
K-562 = test: NCI 60-cell drug screen, Leukemia K-562; assay type: cell-based, human; conditions: 1.00E−5 Molar
RPMI-8226 = test: NCI 60-cell drug screen, Leukemia RPMI-8226; assay type: cell-based, human; conditions: 1.00E−5 Molar
A549/ATCC = test: NCI 60-cell drug screen, Non-Small Cell Lung Cancer A549/ATCC; assay type: cell-based, human; conditions: 1.00E−5 Molar
EKVX = test: NCI 60-cell drug screen, Non-Small Cell Lung Cancer EKVX; assay type: cell-based, human; conditions: 1.00E−5 Molar
HOP-62 = test: NCI 60-cell drug screen, Non-Small Cell Lung Cancer HOP-62; assay type: cell-based, human; conditions: 1.00E−5 Molar
HOP-92 = test: NCI 60-cell drug screen, Non-Small Cell Lung Cancer HOP-92; assay type: cell-based, human; conditions: 1.00E−5 Molar
NCI-H226 = test: NCI 60-cell drug screen, Non-Small Cell Lung Cancer NCI-H226; assay type: cell-based, human; conditions: 1.00E−5 Molar
NCI-H23 = test: NCI 60-cell drug screen, Non-Small Cell Lung Cancer NCI-H23; assay type: cell-based, human; conditions: 1.00E−5 Molar
NCI-H322M = test: NCI 60-cell drug screen, Non-Small Cell Lung Cancer NCI-H322M; assay type: cell-based, human; conditions: 1.00E−5 Molar
NCI-H460 = test: NCI 60-cell drug screen, Non-Small Cell Lung Cancer NCI-H460; assay type: cell-based, human; conditions: 1.00E−5 Molar
NCI-H522 = test: NCI 60-cell drug screen, Non-Small Cell Lung Cancer NCI-H522; assay type: cell-based, human; conditions: 1.00E−5 Molar
COLO 205 = test: NCI 60-cell drug screen, Colon Cancer COLO 205; assay type: cell-based, human; conditions: 1.00E−5 Molar
HCT-116 = test: NCI 60-cell drug screen, Colon Cancer HCT-116; assay type: cell-based, human; conditions: 1.00E−5 Molar
KM12 = test: NCI 60-cell drug screen, Colon Cancer KM12; assay type: cell-based, human; conditions: 1.00E−5 Molar
SW-620 = test: NCI 60-cell drug screen, Colon Cancer SW-620; assay type: cell-based, human; conditions: 1.00E−5 Molar
SF-268 = test: NCI 60-cell drug screen, CNS Cancer SF-268; assay type: cell-based, human; conditions: 1.00E−5 Molar
SF-539 = test: NCI 60-cell drug screen, CNS Cancer SF-539; assay type: cell-based, human; conditions: 1.00E−5 Molar
SNB-19 = test: NCI 60-cell drug screen, CNS Cancer SNB-19; assay type: cell-based, human; conditions: 1.00E−5 Molar
SNB-75 = test: NCI 60-cell drug screen, CNS Cancer SNB-75; assay type: cell-based, human; conditions: 1.00E−5 Molar
LOX IMVI = test: NCI 60-cell drug screen, Melanoma LOX IMVI; assay type: cell-based, human; conditions: 1.00E−5 Molar
SK-MEL-2 = test: NCI 60-cell drug screen, Melanoma SK-MEL-2; assay type: cell-based, human; conditions: 1.00E−5 Molar
SK-MEL-28 = test: NCI 60-cell drug screen, Melanoma SK-MEL-28; assay type: cell-based, human; conditions: 1.00E−5 Molar
SK-MEL-5 = test: NCI 60-cell drug screen, Melanoma SK-MEL-5; assay type: cell-based, human; conditions: 1.00E−5 Molar
UACC-257 = test: NCI 60-cell drug screen, Melanoma UACC-257; assay type: cell-based, human; conditions: 1.00E−5 Molar
UACC-62 = test: NCI 60-cell drug screen, Melanoma UACC-62; assay type: cell-based, human; conditions: 1.00E−5 Molar
IGROV1 = test: NCI 60-cell drug screen, Ovarian Cancer IGROV1; assay type: cell-based, human; conditions: 1.00E−5 Molar
OVCAR-4 = test: NCI 60-cell drug screen, Ovarian Cancer OVCAR-4; assay type: cell-based, human; conditions: 1.00E−5 Molar
OVCAR-5 = test: NCI 60-cell drug screen, Ovarian Cancer OVCAR-5; assay type: cell-based, human; conditions: 1.00E−5 Molar
NCI/ADR-RES = test: NCI 60-cell drug screen, Ovarian Cancer NCI/ADR-RES; assay type: cell-based, human; conditions: 1.00E−5 Molar
Description: In brief, cellular protein levels were determined after 48 hours of drug exposure by sulforhodamine B colorimetry. Through the use of a time 0 cell control, the cell growth can be determined for each cell line thus allowing calculations of the 50% growth inhibitory concentration (GI50), the total growth inhibition (TGI), and the 50% lethal concentration (LC50). Comparison to plates not exposed to drug permits determination of concentration and times of exposure conferring 50% net growth inhibition (GI50), TGI, and 50% cell kill (LC50).
From the data analysis it follows that approximately 95% of the actives (potent anticancer drugs) from the 60 cell line screen can be identified. By these criteria, 6 compounds (each with its certification number, refer to Table 2) of the invention were reported that having anticancer activity.
The screening system in United State National Cancer Institute (NCI) consists of 60 kinds of different human cancer cells, which can be used to assay the growth-inhibiting ability or cell toxicity of a compound against various cancer and tumor at a certain concentration.
NCI had selected 6 compounds f1-0, f1-1, f3-1, f1-11, f1-2 and f1-15 as test compounds (Table 2). Among these compounds, compound f1-1 was effective against renal cancer cell strain CAKI-1, and could achieve an inhibition effect on the growth of said cancer cell up to −8.01. Compound f1-11 could achieve inhibiting effects against leukemia cell line CCRF-CEM and RPMI-8226, up to −15.39 and −60.17, respectively. Compound f1-2 was effective against central nervous system cancer cell line SNB-75, and could achieve an effect of inhibiting said cancer cell growth up to −9.55. Compound f1-15 was effective against leukemia (blood cancer) cell line K-562, MOLT-4, and RPMI-8226, and could achieve effects of inhibiting said cancer cells growth up to −31.59, −2.90 and −13.69, respectively. Further, compound f1-15 was effective also against renal cancer cell line CAKI-1, and could achieve an effect of inhibiting said cancer cell growth up to −14.89.

A498 = test: NCI 60-cell drug screen, Renal Cancer A498; assay type: cell-based, human; conditions: 1.00E−5 Molar
ACHN = test: NCI 60-cell drug screen, Renal Cancer ACHN; assay type: cell-based, human; conditions: 1.00E−5 Molar
RXF 393 = test: NCI 60-cell drug screen, Renal Cancer RXF 393; assay type: cell-based, human; conditions: 1.00E−5 Molar
SN12C = test: NCI 60-cell drug screen, Renal Cancer SN12C; assay type: cell-based, human; conditions: 1.00E−5 Molar
TK-10 = test: NCI 60-cell drug screen, Renal Cancer TK-10; assay type: cell-based, human; conditions: 1.00E−5 Molar
PC-3 = test: NCI 60-cell drug screen, Prostate Cancer PC-3; assay type: cell-based, human; conditions: 1.00E−5 Molar
BT-549 = test: NCI 60-cell drug screen, Breast Cancer BT-549; assay type: cell-based, human; conditions: 1.00E−5 Molar
GBM8901 = test: MTT assay, GBM8901 tumor cell; conditions: concentration 10 μM, tumor cell

Compound | Growth Percent, CCRF-CEM (CCRF-CEM) | Growth Percent, HL-60(TB) (HL-60(TB)) | Growth Percent, K-562 (K-562) | Growth Percent, RPMI-8226 (RPMI-8226) | Growth Percent, A549/ATCC (A549/ATCC) | Growth Percent, EKVX (EKVX) | Growth Percent, HOP-62 (HOP-62) | Growth Percent, HOP-92 (HOP-92) | Growth Percent, NCI-H226 (NCI-H226) | Growth Percent, NCI-H23 (NCI-H23) | Growth Percent, NCI-H322M (NCI-H322M) | Growth Percent, NCI-H460 (NCI-H460) | Growth Percent, NCI-H522 (NCI-H522) | Growth Percent, COLO 205 (COLO 205) | Growth Percent, HCT-116 (HCT-116) | Growth Percent, KM12 (KM12) | Growth Percent, SW-620 (SW-620) | Growth Percent, SF-268 (SF-268) | Growth Percent, SF-539 (SF-539) | Growth Percent, SNB-19 (SNB-19) | further results
O=C1c2ccccc2C(=O)c2c1ccc1nc(S)[nH]c21 [f1-0, 2-Mercapto-1(3)H-anthra[1,2-d]imidazole-6,11-dione] | 61.91% | 97.58% | 108.55% | 101.22% | 118.18% | 50.53% | 96.74% | 65.48% | 83.74% | 113.34% | 96.31% | 98.61% | 96.06% | 103.96% | 96.31% | 101.59% | 97.56% | 90.30% | 91.35% | 91.30% | Growth Percent, SNB-75 (SNB-75): 100.90%; Growth Percent, LOX IMVI (LOX IMVI): 84.00%; Growth Percent, SK-MEL-2 (SK-MEL-2): 134.35%; Growth Percent, SK-MEL-28 (SK-MEL-28): 118.39%; Growth Percent, SK-MEL-5 (SK-MEL-5): 86.66%; Growth Percent, UACC-257 (UACC-257): 105.26%; Growth Percent, UACC-62 (UACC-62): 84.17%; Growth Percent, IGROV1 (IGROV1): 138.25%; Growth Percent, OVCAR-4 (OVCAR-4): 91.57%; Growth Percent, OVCAR-5 (OVCAR-5): 129.22%; Growth Percent, NCI/ADR-RES (NCI/ADR-RES): 109.60%; Growth Percent, A498 (A498): 94.31%; Growth Percent, ACHN (ACHN): 96.23%; Growth Percent, RXF 393 (RXF 393): 141.66%; Growth Percent, SN12C (SN12C): 87.98%; Growth Percent, TK-10 (TK-10): 111.74%; Growth Percent, PC-3 (PC-3): 78.80%; Growth Percent, BT-549 (BT-549): 114.30%; Cell survival rate (%) GBM8901 (GBM8901): 78 ± 13%
CCSc1nc2ccc3c(c2[nH]1)C(=O)c1ccccc1C3=O [f1-1, 2-(Ethylthio)-1H-anthra[1,2-d]imidazole-6,11-dione] | 36.87% | 62.64% | 86.29% | 28.52% | 100.94% | 43.67% | 96.59% | 75.35% | 62.07% | 87.41% | 33.44% | 38.83% | 78.60% | 71.84% | 68.78% | 68.26% | 84.53% | 75.67% | 58.58% | 87.90% | Growth Percent, SNB-75 (SNB-75): 73.34%; Growth Percent, LOX IMVI (LOX IMVI): 36.72%; Growth Percent, SK-MEL-2 (SK-MEL-2): 81.65%; Growth Percent, SK-MEL-28 (SK-MEL-28): 97.72%; Growth Percent, SK-MEL-5 (SK-MEL-5): 63.93%; Growth Percent, UACC-257 (UACC-257): 111.80%; Growth Percent, UACC-62 (UACC-62): 47.64%; Growth Percent, IGROV1 (IGROV1): 73.41%; Growth Percent, OVCAR-4 (OVCAR-4): 55.05%; Growth Percent, OVCAR-5 (OVCAR-5): 85.38%; Growth Percent, NCI/ADR-RES (NCI/ADR-RES): 85.72%; Growth Percent, A498 (A498): 75.49%; Growth Percent, ACHN (ACHN): 37.57%; Growth Percent, RXF 393 (RXF 393): 99.91%; Growth Percent, SN12C (SN12C): 67.91%; Growth Percent, TK-10 (TK-10): 74.09%; Growth Percent, PC-3 (PC-3): 53.79%; Growth Percent, BT-549 (BT-549): 55.80%; Cell survival rate (%) GBM8901 (GBM8901): 58 ± 7%
